Measured values as given in US20260060252A1, “HERBICIDAL COMBINATIONS” (UPL LTD, priority 2018, published 2026).

Assays:
Format in all cases: in vivo
Details in all cases: clomazone 32, metribuzin 12, sulfentrazone 7.7 Fl oz/A, combination 32 + 7.7 + 12 Fl oz/A
[1] = tested on: Palmer amaranth; assay: % control of Palmer amaranth in Soybean
[2] = tested on: Greenfox tail; assay: % control of Greenfox tail in Soybean
[3] = tested on: Tall morning glory; assay: % control of Tall morning glory in Soybean

Compound | % control of Palmer amaranth in Soybean, Actual ([1]; 14 DAA) | % control of Palmer amaranth in Soybean, Actual ([1]; 28 DAA) | % control of Palmer amaranth in Soybean, Actual ([1]; 45 DAA) | % control of Greenfox tail in Soybean, Actual ([2]; 14 DAA) | % control of Greenfox tail in Soybean, Actual ([2]; 28 DAA) | % control of Greenfox tail in Soybean, Actual ([2]; 45 DAA) | % control of Tall morning glory in Soybean, Actual ([3]; 14 DAA) | % control of Tall morning glory in Soybean, Actual ([3]; 28 DAA) | % control of Tall morning glory in Soybean, Actual ([3]; 45 DAA)
CSc1nnc(C(C)(C)C)c(=O)n1N [Metribuzin, 4-amino-6-(1,1-dimethylethyl)-3-(methylthio)-1,2,4-triazin-5 (4H)-one] | 65% | 50% | 36.1% | 63.4% | 39.9% | 22.7% | 53.3% | 39.6% | 16.4%
CC1(C)CON(Cc2ccccc2Cl)C1=O [Clomazone] | 60% | 43.3% | 16.4% | 85% | 56.7% | 32.9% | 53.3% | 30% | 13%
Cc1nn(-c2cc(NS(C)(=O)=O)c(Cl)cc2Cl)c(=O)n1C(F)F [Sulfentrazone, N-[2,4-dichloro-5-[4-(difluoromethyl)-4,5-dihydro-3-methyl-5-oxo-1H-1,2,4-triazol-1-yl]phenyl]-methane sulfonamide] | 80% | 62% | 39.4% | 68.5% | 46.6% | 29.7% | 66.7% | 42.8% | 22.5%
